Measured values from ChEMBL document CHEMBL1136547, “2,3-Diarylbenzopyran derivatives as a novel class of selective cyclooxygenase-2 inhibitors” (Bioorg Med Chem Lett, 2003).

How the values were obtained:
[1] = molecular target: T1, Prostaglandin G/H synthase 1 (Mus musculus) (UniProt P22437); assay: In vitro percentage inhibition against prostaglandin G/H synthase 1 using freshly harvested mouse peritoneal macrophages at 10 ug/mL concentration
T1 sequence (whole entry): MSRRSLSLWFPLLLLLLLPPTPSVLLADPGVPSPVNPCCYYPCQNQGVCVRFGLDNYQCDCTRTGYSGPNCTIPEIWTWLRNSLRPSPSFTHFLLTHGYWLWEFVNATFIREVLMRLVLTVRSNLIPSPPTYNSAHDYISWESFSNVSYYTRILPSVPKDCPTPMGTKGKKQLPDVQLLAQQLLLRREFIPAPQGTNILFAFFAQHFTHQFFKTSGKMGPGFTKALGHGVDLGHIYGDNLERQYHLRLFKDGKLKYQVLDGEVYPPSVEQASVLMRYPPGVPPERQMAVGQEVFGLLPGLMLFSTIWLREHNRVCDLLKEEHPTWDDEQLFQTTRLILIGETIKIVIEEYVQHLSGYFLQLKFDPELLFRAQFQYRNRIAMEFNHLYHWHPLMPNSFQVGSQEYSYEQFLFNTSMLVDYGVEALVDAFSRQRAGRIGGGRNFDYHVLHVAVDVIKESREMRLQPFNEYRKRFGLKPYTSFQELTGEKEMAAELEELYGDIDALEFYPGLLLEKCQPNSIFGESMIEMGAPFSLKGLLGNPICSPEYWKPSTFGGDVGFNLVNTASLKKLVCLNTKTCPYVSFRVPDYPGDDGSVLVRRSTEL

[2] = molecular target: T2, Prostaglandin G/H synthase 2 (Mus musculus, UniProt Q05769); assay: In vitro inhibitory concentration against prostaglandin G/H synthase 2 using freshly harvested mouse peritoneal macrophages
T2 sequence (Q05769 whole entry): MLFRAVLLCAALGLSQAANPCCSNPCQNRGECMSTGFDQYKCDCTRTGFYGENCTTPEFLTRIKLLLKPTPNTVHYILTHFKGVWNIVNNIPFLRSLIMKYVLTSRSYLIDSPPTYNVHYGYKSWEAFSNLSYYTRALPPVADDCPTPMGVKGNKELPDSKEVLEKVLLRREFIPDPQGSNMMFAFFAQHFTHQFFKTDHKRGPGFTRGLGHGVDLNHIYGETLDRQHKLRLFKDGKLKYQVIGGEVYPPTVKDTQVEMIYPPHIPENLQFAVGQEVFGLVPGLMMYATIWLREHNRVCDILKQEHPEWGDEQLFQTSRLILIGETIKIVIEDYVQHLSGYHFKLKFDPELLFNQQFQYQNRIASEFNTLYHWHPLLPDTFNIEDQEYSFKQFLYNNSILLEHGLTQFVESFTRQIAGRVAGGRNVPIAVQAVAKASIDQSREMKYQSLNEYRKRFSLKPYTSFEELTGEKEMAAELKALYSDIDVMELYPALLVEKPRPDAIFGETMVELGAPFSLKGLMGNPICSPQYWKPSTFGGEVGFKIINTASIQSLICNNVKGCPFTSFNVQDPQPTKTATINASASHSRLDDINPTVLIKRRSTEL

[3] = molecular target: T3, Prostaglandin G/H synthase 2 (Mus musculus) (UniProt Q05769); assay: In vitro percentage inhibition against Prostaglandin G/H synthase 2 using freshly harvested mouse peritoneal macrophages at 3 ug/mL concentration
T3 sequence (whole entry): T2 sequence (Q05769 whole entry)

[4] = molecular target: T3, Prostaglandin G/H synthase 2 (Mus musculus); assay: In vitro percentage inhibition against Prostaglandin G/H synthase 2 using freshly harvested mouse peritoneal macrophages at 10 ug/mL concentration
[5] = system: Rattus norvegicus; assay: Anti-inflammatory activity in Dawley rats by carrageenan-induced rat paw edema at a dose of 3 mg/kg; assay type: functional
[6] = system: Rattus norvegicus; assay: Anti-inflammatory activity in Dawley rats by carrageenan-induced rat paw edema at a dose of 30 mg/kg; assay type: functional
[7] = molecular target: T1, Prostaglandin G/H synthase 1 (Mus musculus); assay: In vitro percentage inhibition against using freshly harvested mouse peritoneal macrophages Prostaglandin G/H synthase 1 at 10 ug/mL concentration
[8] = Cmax in rat at 10 mg/kg; assay type: ADME, organism-based; set-up: dose 10 mg/kg; settings: in vivo
[9] = Half-life period in rat at 10 mg/kg; assay type: ADME, organism-based; set-up: dose 10 mg/kg; settings: in vivo
[10] = Tmax in rat at 10 mg/kg; assay type: ADME, organism-based; set-up: dose 10 mg/kg; settings: in vivo
[11] = system: Rattus norvegicus; assay: Anti-inflammatory activity in Dawley rats by carrageenan-induced rat paw edema at a dose of 10 mg/kg by oral administration; assay type: functional
[12] = system: Rattus norvegicus; assay: Anti-inflammatory activity in Dawley rats by carrageenan-induced rat paw edema at a dose of 3 mg/kg by oral administration; assay type: functional
[13] = system: Rattus norvegicus; assay: Anti-inflammatory activity in Dawley rats by carrageenan-induced rat paw edema at a dose of 30 mg/kg by oral administration; assay type: functional

| SMILES | inhibition [1] [%] | IC50 [2] [nM] | also measured |
| --- | --- | --- | --- |
| CS(=O)(=O)c1ccc(-c2oc3ccccc3c(=O)c2-c2ccc(Cl)cc2)cc1 | < 5 |  |  |
| COc1ccc(-c2c(-c3ccc(S(C)(=O)=O)cc3)oc3ccccc3c2=O)cc1 | < 5 | 517 |  |
| CS(=O)(=O)c1ccc(-c2oc3ccccc3c(=O)c2-c2cccc(F)c2)cc1 | < 5 | 532 |  |
| CS(=O)(=O)c1ccc(-c2oc3ccccc3c(=O)c2-c2cccc3ccccc23)cc1 | < 5 | 3800 |  |
| CS(=O)(=O)c1ccc(-c2oc3ccccc3c(=O)c2-c2cc(Cl)cc(Cl)c2)cc1 | < 5 |  | inhibition [3]: 7% |
| CS(=O)(=O)c1ccc(-c2oc3ccccc3c(=O)c2-c2ccccc2)cc1 | < 5 | 930 |  |
| CS(=O)(=O)c1ccc(-c2oc3ccccc3c(=O)c2-c2ccncc2)cc1 | < 5 |  | inhibition [4]: 24% |
| CS(=O)(=O)c1ccc(-c2oc3ccccc3c(=O)c2-c2ccccn2)cc1 | 17 |  | inhibition [4]: 44% |
| COc1ccc(-c2c(-c3ccc(S(C)(=O)=O)cc3)oc3ccccc3c2=O)cn1 | 18 | 2310 |  |
| CS(=O)(=O)c1ccc(-c2oc3ccccc3c(=S)c2-c2ccc(Cl)c(Cl)c2)cc1 | < 5 | 520 |  |
| COc1ccc(-c2c(-c3ccc(S(N)(=O)=O)cc3)oc3ccccc3c2=O)cc1 | 84 | 393 |  |
| Cc1ccccc1-c1c(-c2ccc(S(C)(=O)=O)cc2)oc2ccccc2c1=O | < 5 | 948 |  |
| CS(=O)(=O)c1ccc(-c2oc3ccccc3c(=O)c2-c2cccnc2)cc1 | 13 |  | inhibition in vivo at 3 mg/kg [5]: 18%; inhibition in vivo at 30 mg/kg [6]: 41% |
| NS(=O)(=O)c1ccc(-c2oc3ccccc3c(=O)c2-c2ccc3c(c2)OCO3)cc1 |  | 925 | inhibition [7]: 75% |
| Cn1cc(-c2c(-c3ccc(S(C)(=O)=O)cc3)oc3ccccc3c2=O)cn1 | < 5 |  | inhibition [4]: 13% |
| CS(=O)(=O)c1ccc(-c2oc3ccc(F)cc3c(=O)c2-c2cccnc2)cc1 | 12 | 1260 | Cmax [8]: 6900 ng/mL; half-life [9]: 7.4 h; Tmax [10]: 5 h; inhibition in vivo at 10 mg/kg [11]: 26%; inhibition in vivo at 3 mg/kg [12]: 20%; inhibition in vivo at 30 mg/kg [13]: 41% |

The next lines start with results.

| inhibition [1] [%] | IC50 [2] [nM] | SMILES | also measured |
| --- | --- | --- | --- |
| 60 | 177 | NS(=O)(=O)c1ccc(-c2oc3ccccc3c(=O)c2-c2ccccc2F)cc1 |  |
| < 5 | 142 | COc1ccc(-c2c(-c3ccc(S(C)(=O)=O)cc3)oc3ccccc3c2=S)cc1 |  |
| < 5 | 102 | CS(=O)(=O)c1ccc(-c2oc3ccccc3c(=S)c2-c2ccccc2)cc1 |  |
| 90 | 283 | CSc1ccc(-c2c(-c3ccc(S(N)(=O)=O)cc3)oc3ccccc3c2=O)cc1 |  |
| < 5 | 73.1 | CS(=O)(=O)c1ccc(-c2oc3ccccc3c(=S)c2-c2ccc(F)cc2)cc1 |  |
| < 5 | 365 | CS(=O)(=O)c1ccc(-c2oc3ccccc3c(=O)c2-c2cccc(Cl)c2)cc1 |  |
| < 5 | 203 | CS(=O)(=O)c1ccc(-c2oc3ccccc3c(=O)c2-c2ccc(F)cc2)cc1 |  |
| < 5 | 324 | CS(=O)(=O)c1ccc(-c2oc3ccccc3c(=O)c2-c2cc3ccccc3s2)cc1 |  |
| 61 | 106 | NS(=O)(=O)c1ccc(-c2oc3ccccc3c(=O)c2-c2ccccc2)cc1 |  |
| < 5 | 76.1 | CS(=O)(=O)c1ccc(-c2oc3ccccc3c(=O)c2-c2ccccc2F)cc1 |  |
| < 5 | 269 | CS(=O)(=O)c1ccc(-c2oc3ccccc3c(=O)c2-c2ccc(Cl)c(Cl)c2)cc1 |  |
| < 5 | 359 | CS(=O)(=O)c1ccc(-c2oc3ccccc3c(=O)c2-c2ccc(Cl)cc2Cl)cc1 |  |
| 67 | 126 | NS(=O)(=O)c1ccc(-c2oc3ccccc3c(=O)c2-c2ccc(F)cc2)cc1 |  |
| < 5 | 195 | CS(=O)(=O)c1ccc(-c2oc3ccccc3c(=S)c2-c2ccccc2F)cc1 |  |
